Patent US12459951B2, “Compounds that interact with RAS superfamily proteins for treatment of cancers, inflammatory diseases, rasopathies, and fibrotic disease” (SHY Therapeutics, LLC, priority 2022, dated 2025)

Assays:
[1] = system: TNF-alpha; assay: TNF-alpha Quantification Assay (ELISA), LPS-stimulated RAW 264.7; assay type: cell-based; settings: Mus musculus, RAW264.7; at 10 μM; read-out: TNFα: % inh.
[2] = system: KRas G12D mutant; assay: Ras GTP Binding Domain Inhibition Assay (Ras Superfamily Assay); settings: 20 μM compound
From the text: (§1) Biological Example 3: Ras GTP Binding Domain Inhibition Assay
(§2) The assays described in Example 3 are collectively referred to as the “Ras Superfamily Assay” throughout this application.
(§3) A Ras Superfamily Activity Assay (as disclosed in International Application No. PCT/US2018/038613, filed Jun. 20, 2018, which is incorporated by reference in its entirety) was used as a specific assay to evaluate compounds against the following for the following Ras Superfamily proteins: KRas wild type, KRas Q61H mutant, KRas G12C mutant, KRas G12D mutant, Rac-1, and Rho-A.
(§4) • 25 mM Tris-HCl, pH 7.4 • 27 mM KCl • 137 mM NaCl • 1 mM MgCl2 • 1 mM DTT Buffer-II: • 50 mM Tris-HCl, pH 7.0 • 1 mM MgCl2 • 1 mM DTT
(§5) The small GTPases proteins: KRas wild type. KRas Q61H mutant, KRas G12C mutant, KRas G12D mutants, Rac-1, and Rho-A were expressed as His-tagged proteins. In addition, the Guanosine nucleotide Exchange Factor (GEF) Sos protein (residues 556-1049) was expressed as a His-tagged protein. In cells, the guanine nucleotide exchange factor Sos protein promotes activation of Ras proteins by stimulating an exchange of GDP for GTP. The inclusion of Sos to the Ras GTP binding domain inhibition assay may be considered as an alternative representation of physiological cellular conditions for evaluating the inhibitory activity of some of the tested small molecules.
(§6) For the assay, all purified small GTPases proteins were diluted in Buffer-I or Buffer-II to a final concentration of 10-30 μg/mL. 200 μL of each diluted protein was added to a nickel-coated 96-well plate and incubated overnight at 4° C. Then the protein solution was discarded and 200 μL of Buffer-I or Buffer-II was added to each well in the presence of 1% DMSO. Compounds to be tested were added to the protein-coated wells at final concentration of 20 μM, and incubated for 3 hours at room temperature with and without 10-30 μg/mL of Sos added to the final hour of the incubation. When performing IC50 measurements a serial dilution of all tested concentrations was added. Then Cy3-GTP or Cy5-GTP was added to each well to a final concentration of 100 nM. The labeled GTP was incubated for 45 minutes at room temperature. Following GTP incubation, wells were washed 3× in Buffer-I or Buffer-II and 200 μL of Buffer-I or Buffer-II was added to each well. Following washes, the amount of bound labeled-GTP was measured using a SpectraMax M3 (Molecular Devices).

[3] = system: KRas wild type; assay: as above; settings: 20 μM compound
From the text: as §1, §2, §3, §4, §5, §6

[4] = biological target: T1, Rac-1 (Homo sapiens, UniProt P63000); assay: as above; settings: read-out: Rac-1: % inh.
T1 construct: made in house
From the text: as §1, §2, §3, §4, §5, §6

[5] = system: IL6; assay: IL-6 Quantification Assay (ELISA), LPS-stimulated RAW 264.7; assay type: cell-based; set-up: inhibition: dose or concentration left out as unconfirmed; settings: Mus musculus, RAW264.7; read-out: IL-6: % inh.

## COC(=O)c1c(-c2ccn(C)n2)cn2nc(-c3nccn3C)nc(N[C@H]3CC[C@H](OC)C3)c12 (racemic) [Compound 180, Methyl 4-(((1S,3S)-3-methoxycyclopentyl)amino)-2-(1-methyl-1H-imidazol-2-yl)-6-(1-methyl-1H-pyrazol-3-yl)pyrrolo[2,1-f][1,2,4]triazine-5-carboxylate]
[1]
  inhibition at 10 µM: 25 to 49%
[2]; with SOS
  KRas G12D mutant + SOS: % inh.: A (A = 1-25% inhibition)
[2]; without SOS
  KRas G12D mutant: % inh.: A (A = 1-25% inhibition)
[3]; with SOS
  KRas wild type + SOS: % inh.: A (A = 1-25% inhibition)
[3]; without SOS
  KRas wild type: % inh.: A (A = 1-25% inhibition)
[4]
  inhibition at 20 µM: 1 to 25%
[5]
  inhibition: 50 to 74%
